Measured values as given in the CheMixHub viscosity set.
± gives the uncertainty stated by the source.

Experiment: xn = mol fraction of the nth substance listed

**Q.** Which results are given for `N[C@@H](Cc1ccc(O)cc1)C(=O)O` + O?
**A.** viscosity (303 K, 100 kPa, x1 = 0.00933): 0.8931 ± 0.019 mPa·s; viscosity (303 K, 100 kPa, x1 = 0.00952): 0.911 ± 0.019 mPa·s; viscosity (303 K, 100 kPa, x1 = 0.00967): 0.9501 ± 0.02 mPa·s; viscosity (303 K, 100 kPa, x1 = 0.00975): 0.9616 ± 0.021 mPa·s; viscosity (303 K, 100 kPa, x1 = 0.0098): 0.9874 ± 0.021 mPa·s; viscosity (303 K, 100 kPa, x1 = 0.00983): 1 ± 0.022 mPa·s

**Q.** Which viscosity (298.15 K, 101 kPa, x1 = 0.0018) does the source give for `O=P([O-])([O-])[O-].[K+].[K+].[K+]` + O here?
**A.** 0.9999 ± 0.01 mPa·s

**Q.** And the viscosity (298.15 K, 101 kPa, x1 = 0.0054)?
**A.** 1.068 ± 0.01 mPa·s

**Q.** What about the viscosity (298.15 K, 101 kPa, x1 = 0.0089) of the same molecule?
**A.** 1.197 ± 0.01 mPa·s

**Q.** What about the viscosity (298.15 K, 101 kPa, x1 = 0.012) of the same molecule?
**A.** 1.397 ± 0.012 mPa·s

**Q.** And the viscosity (298.15 K, 101 kPa, x1 = 0.016)?
**A.** 1.648 ± 0.014 mPa·s

**Q.** And the viscosity (303.15 K, 101 kPa, x1 = 0.0018)?
**A.** 0.8476 ± 0.0084 mPa·s

**Q.** And the viscosity (303.15 K, 101 kPa, x1 = 0.0054)?
**A.** 0.9587 ± 0.0089 mPa·s

**Q.** And the viscosity (303.15 K, 101 kPa, x1 = 0.0089)?
**A.** 1.107 ± 0.0099 mPa·s

**Q.** What about the viscosity (303.15 K, 101 kPa, x1 = 0.012) of the same molecule?
**A.** 1.268 ± 0.011 mPa·s

**Q.** And the viscosity (303.15 K, 101 kPa, x1 = 0.016)?
**A.** 1.492 ± 0.013 mPa·s

**Q.** What about the viscosity (308.15 K, 101 kPa, x1 = 0.0018) of the same molecule?
**A.** 0.7639 ± 0.0072 mPa·s

**Q.** What about the viscosity (308.15 K, 101 kPa, x1 = 0.0054) of the same molecule?
**A.** 0.8485 ± 0.008 mPa·s

**Q.** What about the viscosity (308.15 K, 101 kPa, x1 = 0.0089) of the same molecule?
**A.** 0.9715 ± 0.0094 mPa·s

**Q.** And the viscosity (308.15 K, 101 kPa, x1 = 0.012)?
**A.** 1.123 ± 0.01 mPa·s

**Q.** And the viscosity (308.15 K, 101 kPa, x1 = 0.016)?
**A.** 1.341 ± 0.012 mPa·s

**Q.** Which viscosity (298.15 K, 101.3 kPa, x1 = 0.003662) does the source give for `O=S(=O)(O)CCN1CCOCC1` + O here?
**A.** 0.918 ± 0.037 mPa·s

**Q.** And the viscosity (298.15 K, 101.3 kPa, x1 = 0.0073)?
**A.** 0.98 ± 0.04 mPa·s

**Q.** And the viscosity (298.15 K, 101.3 kPa, x1 = 0.00959)?
**A.** 1.006 ± 0.041 mPa·s

**Q.** And the viscosity (298.15 K, 101.3 kPa, x1 = 0.01075)?
**A.** 1.035 ± 0.042 mPa·s

**Q.** What about the viscosity (298.15 K, 101.3 kPa, x1 = 0.01417) of the same molecule?
**A.** 1.101 ± 0.045 mPa·s

**Q.** And the viscosity (298.15 K, 101.3 kPa, x1 = 0.01767)?
**A.** 1.153 ± 0.047 mPa·s

**Q.** What about the viscosity (308.15 K, 101.3 kPa, x1 = 0.003662) of the same molecule?
**A.** 0.743 ± 0.03 mPa·s

**Q.** What about the viscosity (308.15 K, 101.3 kPa, x1 = 0.0073) of the same molecule?
**A.** 0.792 ± 0.032 mPa·s

**Q.** And the viscosity (308.15 K, 101.3 kPa, x1 = 0.00959)?
**A.** 0.814 ± 0.033 mPa·s

**Q.** What about the viscosity (308.15 K, 101.3 kPa, x1 = 0.01075) of the same molecule?
**A.** 0.836 ± 0.034 mPa·s

**Q.** And the viscosity (308.15 K, 101.3 kPa, x1 = 0.01417)?
**A.** 0.893 ± 0.036 mPa·s

**Q.** And the viscosity (308.15 K, 101.3 kPa, x1 = 0.01767)?
**A.** 0.932 ± 0.038 mPa·s

**Q.** What about the viscosity (318.15 K, 101.3 kPa, x1 = 0.003662) of the same molecule?
**A.** 0.616 ± 0.025 mPa·s

**Q.** And the viscosity (318.15 K, 101.3 kPa, x1 = 0.0073)?
**A.** 0.657 ± 0.027 mPa·s

**Q.** And the viscosity (318.15 K, 101.3 kPa, x1 = 0.00959)?
**A.** 0.676 ± 0.027 mPa·s

**Q.** What about the viscosity (318.15 K, 101.3 kPa, x1 = 0.01075) of the same molecule?
**A.** 0.693 ± 0.028 mPa·s

**Q.** What about the viscosity (318.15 K, 101.3 kPa, x1 = 0.01417) of the same molecule?
**A.** 0.737 ± 0.03 mPa·s

**Q.** What about the viscosity (318.15 K, 101.3 kPa, x1 = 0.01767) of the same molecule?
**A.** 0.772 ± 0.031 mPa·s

**Q.** With `O=[N+]([O-])[O-].O=[N+]([O-])[O-].[Ca+2]` + O as the molecule, how does the viscosity (298.15 K, 100 kPa, x1 = 0.00575) read?
**A.** 0.963 ± 0.03 mPa·s

**Q.** And the viscosity (298.15 K, 100 kPa, x1 = 0.006)?
**A.** 0.964 ± 0.038 mPa·s

**Q.** And the viscosity (298.15 K, 100 kPa, x1 = 0.01)?
**A.** 1.052 ± 0.042 mPa·s

**Q.** And the viscosity (298.15 K, 100 kPa, x1 = 0.01205)?
**A.** 1.051 ± 0.033 mPa·s

**Q.** What about the viscosity (298.15 K, 100 kPa, x1 = 0.0267) of the same molecule?
**A.** 1.384 ± 0.043 mPa·s

**Q.** What about the viscosity (298.15 K, 100 kPa, x1 = 0.03) of the same molecule?
**A.** 1.328 ± 0.052 mPa·s

**Q.** What about the viscosity (298.15 K, 100 kPa, x1 = 0.04) of the same molecule?
**A.** 1.955 ± 0.077 mPa·s

**Q.** And the viscosity (298.15 K, 100 kPa, x1 = 0.04494)?
**A.** 1.954 ± 0.061 mPa·s

**Q.** And the viscosity (298.15 K, 100 kPa, x1 = 0.06819)?
**A.** 3.256 ± 0.1 mPa·s

**Q.** What about the viscosity (298.15 K, 100 kPa, x1 = 0.07) of the same molecule?
**A.** 3.257 ± 0.13 mPa·s

**Q.** And the viscosity (323.15 K, 100 kPa, x1 = 0.00575)?
**A.** 0.599 ± 0.019 mPa·s

**Q.** What about the viscosity (323.15 K, 100 kPa, x1 = 0.006) of the same molecule?
**A.** 0.599 ± 0.024 mPa·s

**Q.** What about the viscosity (323.15 K, 100 kPa, x1 = 0.01) of the same molecule?
**A.** 0.66 ± 0.026 mPa·s

**Q.** And the viscosity (323.15 K, 100 kPa, x1 = 0.01205)?
**A.** 0.66 ± 0.021 mPa·s

**Q.** And the viscosity (323.15 K, 100 kPa, x1 = 0.0267)?
**A.** 0.852 ± 0.027 mPa·s

**Q.** What about the viscosity (323.15 K, 100 kPa, x1 = 0.03) of the same molecule?
**A.** 0.844 ± 0.033 mPa·s

**Q.** And the viscosity (323.15 K, 100 kPa, x1 = 0.04)?
**A.** 1.207 ± 0.048 mPa·s

**Q.** And the viscosity (323.15 K, 100 kPa, x1 = 0.04494)?
**A.** 1.204 ± 0.038 mPa·s

**Q.** What about the viscosity (323.15 K, 100 kPa, x1 = 0.06819) of the same molecule?
**A.** 1.928 ± 0.06 mPa·s

**Q.** What about the viscosity (323.15 K, 100 kPa, x1 = 0.07) of the same molecule?
**A.** 1.931 ± 0.076 mPa·s
